Experimental data as given in article PMC11749787, “Natural flavonoid glycosides Chrysosplenosides I & A rejuvenate intestinal stem cell aging via activation of PPARγ signaling” (Life Medicine, 2024).

Target: T1, PPARγ (peroxisome proliferator-activated receptor-gamma) (Homo sapiens, UniProt P37231)
T1 construct: gene PPARG; human PPARγ protein with a His tag (HY-P7999, MCE)
T1 sequence (P37231 1-505): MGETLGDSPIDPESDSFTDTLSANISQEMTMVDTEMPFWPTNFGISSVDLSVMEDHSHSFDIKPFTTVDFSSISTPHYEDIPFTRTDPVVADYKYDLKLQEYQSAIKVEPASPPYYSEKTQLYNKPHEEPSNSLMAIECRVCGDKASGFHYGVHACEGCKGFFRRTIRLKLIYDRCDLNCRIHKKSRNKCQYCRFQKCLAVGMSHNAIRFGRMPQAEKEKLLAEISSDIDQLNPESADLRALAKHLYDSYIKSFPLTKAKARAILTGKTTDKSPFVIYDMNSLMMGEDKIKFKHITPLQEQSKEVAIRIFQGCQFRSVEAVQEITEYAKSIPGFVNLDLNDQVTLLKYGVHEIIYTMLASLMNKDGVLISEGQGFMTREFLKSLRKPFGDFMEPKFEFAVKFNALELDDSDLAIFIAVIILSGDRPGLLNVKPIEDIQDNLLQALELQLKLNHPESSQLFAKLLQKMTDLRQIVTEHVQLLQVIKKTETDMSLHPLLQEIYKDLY
Assay: bio-layer interferometry (Octet K2, NTA biosensor, immobilized His-tagged PPARγ)
Assay type: binding

Molecule	Kd [µM]
COc1cc(O[C@@H]2O[C@H](CO)[C@@H](O)[C@H](O)[C@H]2O)c(-c2oc3cc(OC)c(OC)c(O)c3c(=O)c2OC)cc1O [CA1, Chrysosplenoside I]	75.3
Chrysosplenoside A [CA2]	32.4
